Results from US20260265246A1 (ICAHN SCHOOL OF MEDICINE AT MOUNT SINAI, priority 2021, published 2026).
pEC50, pKi: −log10 of the molar value. Where two headings read alike, the source gives them in different places.

Tests used:
5HT2A receptor [1] = molecular target: T1, 5HT2A receptor (Homo sapiens, UniProt P28223); assay: cell-based; design: expressed in transfected cells; host or cells: HEK293T cells, transient co-transfection; conditions: for Emax: HEK-293T
5HT2A receptor [2] = molecular target: T1, 5HT2A receptor; assay: biochemical; format: binding; design: expressed in transfected cells; crude membranes; conditions: for Ki: 5HT2A Ki (nM); for pKi: read-out: 5HT2A Ki
5HT2A receptor [3] = molecular target: T1, 5HT2A receptor; assay: cell-based; design: expressed in transfected cells; host or cells: HEK293T cells, transient co-transfection; conditions: for EC50: 5HT2A β-Arr EC50 (nM); for Emax: HEK-293T; for pEC50: read-out: 5HT2A β-Arr EC50
[4] = BRET2 Gαq dissociation, HEK293T cells, read-out: 5HT2A Gq EC50
[5] = BRET2 Gαq dissociation, HEK293T cells, normalized to 5-HT, read-out: 5HT2A Gq Emax (%)
[6] = secondary radioligand binding, Ki from IC50 by Cheng-Prusoff
[7] = BRET1 beta-arrestin2 recruitment, HEK293T cells
[8] = BRET1 beta-arrestin2 recruitment, HEK293T cells, normalized to 5-HT, read-out: 5HT2A β-Arr Emax (%)
[9] = 5HT2A Gq EC50 (nM), BRET2 Gαq dissociation, HEK293T cells
[10] = read-out: 5HT2A Gq Emax (%), BRET2 Gαq dissociation, HEK293T cells, normalized to 5-HT
[11] = read-out: 5HT2A β-Arr Emax (%), BRET1 beta-arrestin2 recruitment, HEK293T cells, normalized to 5-HT
[12] = BRET2 Gαq dissociation, HEK293T, read-out: 5HTA Gq EC50
[13] = BRET2 Gαq dissociation, HEK293T, normalized to 5-HT, read-out: 5HTA Gq Emax (%)
[14] = secondary binding assay, Cheng-Prusoff
[15] = BRET1 beta-arrestin2 recruitment, HEK293T
[16] = BRET1 beta-arrestin2 recruitment, HEK293T, normalized to 5-HT, read-out: 5HT2A β-Arr Emax (%)

T1 sequence (P28223 whole entry): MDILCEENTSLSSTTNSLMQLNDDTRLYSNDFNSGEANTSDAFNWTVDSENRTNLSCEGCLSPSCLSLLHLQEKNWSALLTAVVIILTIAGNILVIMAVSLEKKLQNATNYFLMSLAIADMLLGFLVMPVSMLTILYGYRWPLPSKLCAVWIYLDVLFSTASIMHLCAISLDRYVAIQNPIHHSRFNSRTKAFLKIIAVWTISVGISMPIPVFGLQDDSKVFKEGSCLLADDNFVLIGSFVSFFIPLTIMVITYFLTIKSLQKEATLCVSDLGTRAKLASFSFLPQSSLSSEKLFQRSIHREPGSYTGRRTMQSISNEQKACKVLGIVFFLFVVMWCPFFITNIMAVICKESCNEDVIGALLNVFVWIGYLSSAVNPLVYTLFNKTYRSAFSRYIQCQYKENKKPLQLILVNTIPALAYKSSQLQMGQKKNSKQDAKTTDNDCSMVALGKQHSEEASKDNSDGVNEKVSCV

SMILES	pEC50 (5HT2A receptor [1]; [4])	Emax (5HT2A receptor [1]; [5])	Ki (5HT2A receptor [2]; [6])	EC50 (5HT2A receptor [3]; [7])	Emax (5HT2A receptor [3]; [8])	also measured
CN1CCC=C(c2n[nH]c3cccc(C#N)c23)C1 [Example 99, 3-(1-methyl-1,2,5,6-tetrahydropyridin-3-yl)-1H-indazole-4-carbonitrile]	7.02	80%	491 nM	1010 nM	43.8%	–
COc1cccc2[nH]nc(C3=CCCN(C)C3)c12 [Example 100, 4-methoxy-3-(1-methyl-1,2,5,6-tetrahydropyridin-3-yl)-1H-indazole]	7.04	63.9%	349 nM	460 nM	52.4%	–
CN1CCC=C(c2n[nH]c3ccc(Cl)cc23)C1 [Example 101, 5-chloro-3-(1-methyl-1,2,5,6-tetrahydropyridin-3-yl)-1H-indazole]	7.79	74.2%	141 nM	292 nM	80.7%	–
CN1CCC=C(c2n[nH]c3ccc(F)cc23)C1 [Example 102, 5-fluoro-3-(1-methyl-1,2,5,6-tetrahydropyridin-3-yl)-1H-indazole]	8.05	84.5%	246 nM	129 nM	79.8%	–
COc1ccc2[nH]nc(C3=CCCN(C)C3)c2c1 [Example 104, 5-methoxy-3-(1-methyl-1,2,5,6-tetrahydropyridin-3-yl)-1H-indazole]	7.08	88.2%	501 nM	681 nM	83.7%	–
Cc1cccc2c(C3=CCCN(C)C3)n[nH]c12 [Example 105, 7-methyl-3-(1-methyl-1,2,5,6-tetrahydropyridin-3-yl)-1H-indazole]	7.45	75.4%	1340 nM	432 nM	45.7%	–
CN1CCC=C(c2n[nH]c3c(Cl)cccc23)C1 [Example 106, 7-chloro-3-(1-methyl-1,2,5,6-tetrahydropyridin-3-yl)-1H-indazole]	7.41	85.5%	332 nM	176 nM	66.8%	–
CN1CCC=C(c2n[nH]c3c(F)cccc23)C1 [Example 107, 7-fluoro-3-(1-methyl-1,2,5,6-tetrahydropyridin-3-yl)-1H-indazole]	–	–	883 nM	213 nM	–	EC50 (5HT2A receptor [1]; [9]): 34.5 nM; Emax (5HT2A receptor [1]; [10]): 68.1%; Emax (5HT2A receptor [3]; [11]): 36.3%
CN1CCC=C(c2n[nH]c3c(C#N)cccc23)C1 [Example 108, 3-(1-methyl-1,2,5,6-tetrahydropyridin-3-yl)-1H-indazole-7-carbonitrile]	–	102%	1380 nM	494 nM	72.5%	EC50 (5HT2A receptor [1]; [9]): 108 nM
Clc1cccc2c(C3CCCNC3)n[nH]c12 (centres unmarked) [Example 114, 7-chloro-3-(piperidin-3-yl)-1H-indazole]	–	–	1240 nM	468 nM	–	EC50 (5HT2A receptor [1]; [9]): 290 nM; Emax (5HT2A receptor [1]; [10]): 74.5%; Emax (5HT2A receptor [3]; [11]): 29.3%
CN1CCC=C(c2c[nH]c3c(Cl)cc(F)cc23)C1 [Example 115, 7-chloro-5-fluoro-3-(1-methyl-1,2,5,6-tetrahydropyridin-3-yl)-1H-indole]	7.29	114%	–	576 nM	59.7%	pKi (5HT2A receptor [2]; [6]): 7.68
Cc1cc(F)cc2c(C3=CCCN(C)C3)c[nH]c12 [Example 116, 5-fluoro-7-methyl-3-(1-methyl-1,2,5,6-tetrahydropyridin-3-yl)-1H-indole]	7.13	125%	–	129 nM	56.1%	pKi (5HT2A receptor [2]; [6]): 7.00
CN1CCC=C(c2c[nH]c3nccc(F)c23)C1 [Example 117, 4-fluoro-3-(1-methyl-1,2,5,6-tetrahydropyridin-3-yl)-1H-pyrrolo[2,3-b]pyridine]	–	110%	1360 nM	865 nM	51.1%	EC50 (5HT2A receptor [1]; [9]): 253 nM
CN1CCC=C(c2c[nH]c3ncc(F)cc23)C1 [Example 118, 5-fluoro-3-(1-methyl-1,2,5,6-tetrahydropyridin-3-yl)-1H-pyrrolo[2,3-b]pyridine]	–	109%	80.3 nM	49.4 nM	56.7%	EC50 (5HT2A receptor [1]; [9]): 31.6 nM
Fc1ccnc2[nH]cc(C3=CCCNC3)c12 [Example 119, 4-fluoro-3-(1,2,5,6-tetrahydropyridin-3-yl)-1H-pyrrolo[2,3-b]pyridine]	–	88.2%	844 nM	1520 nM	53.8%	EC50 (5HT2A receptor [1]; [9]): 193 nM
Fc1cnc2[nH]cc(C3=CCCNC3)c2c1 [Example 120, 5-fluoro-3-(1,2,5,6-tetrahydropyridin-3-yl)-1H-pyrrolo[2,3-b]pyridine]	–	100%	53.6 nM	67.4 nM	60.4%	EC50 (5HT2A receptor [1]; [9]): 21.5 nM
CCc1cccc2c(C3=CCCNC3)n[nH]c12 [Example 121, 7-ethyl-3-(1,2,5,6-tetrahydropyridin-3-yl)-1H-indazole]	7.69	103%	422 nM	–	85.7%	pEC50 (5HT2A receptor [3]; [7]): 7.12
CCc1cccc2c(C3=CCCN(C)C3)n[nH]c12 [Example 122, 7-ethyl-3-(1-methyl-1,2,5,6-tetrahydropyridin-3-yl)-1H-indazole]	–	102%	816 nM	247 nM	42.9%	EC50 (5HT2A receptor [1]; [9]): 151 nM
C=CCN1CCC=C(c2n[nH]c3c(Cl)cccc23)C1 [Example 124, 3-(1-allyl-1,2,5,6-tetrahydropyridin-3-yl)-7-chloro-1H-indazole]	7.30	64.9%	159 nM	1010 nM	35.3%	–
C#CCN1CCC=C(c2n[nH]c3c(Cl)cccc23)C1 [Example 125, 7-chloro-3-(1-(prop-2-yn-1-yl)-1,2,5,6-tetrahydropyridin-3-yl)-1H-indazole]	7.12	93.5%	1970 nM	291 nM	63.3%	–
CCN1CCC=C(c2c[nH]c3c(Cl)cccc23)C1 [Example 126, 7-chloro-3-(1-ethyl-1,2,5,6-tetrahydropyridin-3-yl)-1H-indole]	7.40	96.6%	–	–	62.9%	pKi (5HT2A receptor [2]; [6]): 7.37; pEC50 (5HT2A receptor [3]; [7]): 7.13
Cc1c(F)ccc2c(C3=CCCN(C)C3)c[nH]c12 [Example 127, 6-fluoro-7-methyl-3-(1-methyl-1,2,5,6-tetrahydropyridin-3-yl)-1H-indole]	–	–	–	–	–	pEC50 (5HT2A receptor [1]; [12]): 7.58; Emax (5HT2A receptor [1]; [13]): 90.2%; Ki (5HT2A receptor [2]; [14]): 121 nM; pEC50 (5HT2A receptor [3]; [15]): 7.20; Emax (5HT2A receptor [3]; [16]): 48.9%
CN1CCC=C(c2c[nH]c3c(Cl)c(F)ccc23)C1 [Example 128, 7-chloro-6-fluoro-3-(1-methyl-1,2,5,6-tetrahydropyridin-3-yl)-1H-indole]	–	–	–	–	–	pEC50 (5HT2A receptor [1]; [12]): 7.92; Emax (5HT2A receptor [1]; [13]): 89.2%; pKi (5HT2A receptor [2]; [14]): 7.82; pEC50 (5HT2A receptor [3]; [15]): 7.18; Emax (5HT2A receptor [3]; [16]): 56.5%
Fc1cc(Cl)c2[nH]nc(C3=CCCNC3)c2c1 [Example 129, 7-chloro-5-fluoro-3-(1,2,5,6-tetrahydropyridin-3-yl)-1H-indazole]	–	–	–	–	–	pEC50 (5HT2A receptor [1]; [12]): 8.51; Emax (5HT2A receptor [1]; [13]): 88.8%; Ki (5HT2A receptor [2]; [14]): 162 nM; pEC50 (5HT2A receptor [3]; [15]): 7.70; Emax (5HT2A receptor [3]; [16]): 95%
CN1CCC=C(c2n[nH]c3c(Cl)cc(F)cc23)C1 [Example 130, 7-chloro-5-fluoro-3-(1-methyl-1,2,5,6-tetrahydropyridin-3-yl)-1H-indazole]	–	–	–	–	–	pEC50 (5HT2A receptor [1]; [12]): 7.89; Emax (5HT2A receptor [1]; [13]): 91.4%; pKi (5HT2A receptor [2]; [14]): 7.71; pEC50 (5HT2A receptor [3]; [15]): 6.78; Emax (5HT2A receptor [3]; [16]): 88.5%
Fc1ccc(Cl)c2[nH]nc(C3=CCCNC3)c12 [Example 131, 7-chloro-4-fluoro-3-(1,2,5,6-tetrahydropyridin-3-yl)-1H-indazole]	–	–	–	–	–	pEC50 (5HT2A receptor [1]; [12]): 8.14; Emax (5HT2A receptor [1]; [13]): 106%; pKi (5HT2A receptor [2]; [14]): 7.32; pEC50 (5HT2A receptor [3]; [15]): 7.76; Emax (5HT2A receptor [3]; [16]): 72.7%
CN1CCC=C(c2n[nH]c3c(Cl)ccc(F)c23)C1 [Example 132, 7-chloro-4-fluoro-3-(1-methyl-1,2,5,6-tetrahydropyridin-3-yl)-1H-indazole]	–	–	–	–	–	pEC50 (5HT2A receptor [1]; [12]): 7.62; Emax (5HT2A receptor [1]; [13]): 95.4%; pKi (5HT2A receptor [2]; [14]): 7.07; pEC50 (5HT2A receptor [3]; [15]): 7.03; Emax (5HT2A receptor [3]; [16]): 50.9%
Fc1ccc2c(C3=CCCNC3)c[nH]c2n1 [Example 133, 6-fluoro-3-(1,2,5,6-tetrahydropyridin-3-yl)-1H-pyrrolo[2,3-b]pyridine]	–	–	–	–	–	EC50 (5HT2A receptor [1]; 5HTA Gq EC50 (nM), BRET2 Gαq dissociation, HEK293T): 166 nM; Emax (5HT2A receptor [1]; read-out: 5HTA Gq Emax (%), BRET2 Gαq dissociation, HEK293T, normalized to 5-HT): 77.2%; Ki (5HT2A receptor [2]; [14]): 292 nM; EC50 (5HT2A receptor [3]; [15]): 897 nM; Emax (5HT2A receptor [3]; read-out: 5HT2A β-Arr Emax (%), BRET1 beta-arrestin2 recruitment, HEK293T, normalized to 5-HT): 38.1%
